In US20220298483A1, “METHOD AND COMPOSITION FOR CHONDROGENESIS” (National Health Research Institutes, priority 2021, published 2022):

B1: TGFβ3: pleomorphic growth factor commonly used to induce MSC chondrogenesis (R&D Systems) (protein, UniProt P10600 301-412, looked up)
Transforming growth factor …: ALDTNYCFRNLEENCCVRPLYIDFRQDLGWKWVHEPKGYYANFCSGPCPYLRSADTTHSTVLGLYNTLNPEASASPCCVPQDLEPLTILYYVGRTPKVEQLSNMVVKSCKCS

Legend:
[1] = tested on: human MSCs—including iPSC-MSCs, ESC-MSCs and BM-MSCs; assay: 3D pellet culture chondrogenesis in complete chondrogenic medium, Alcian Blue staining and GAG quantification; type: cell-based; conditions: ChM containing TGFβ3, 10 μM; for pellet condensation / pellet integrity: Day 20, all 3 sources of MSCs
Experimental: (§1) In vitro chondrogenic differentiation using 3D pellet culture was performed as described previously (Liu et al., 2011; Wang et al., 2018; Yen et al., 2013), 2×10^5 trypsinized were centrifuged 450×g for 10 minutes to form a pellet in expansion medium. After 16 hours, the medium was changed to chondrogenic basal medium (ChBM) consisting of low-glucose DMEM supplemented with 100 units/ml penicillin, 100 μg/ml streptomycin (all from Gibco-Thermo Fisher Scientific), 1% Insulin-transferrin-sodium selenite media supplement (Sigma-Aldrich, St Louis, Mo., USA), 2 mM L-glutamine (Gibco-Thermo Fisher Scientific), 10 μM L-Ascorbic acid 2-phosphate (Sigma-Aldrich), 100 nm dexamethasone (Sigma-Aldrich). Addition of TGFβ1 (10 ng/mL; R&D Systems, Minneapolis, Minn., USA), TGFβ3 (10 ng/mL; R&D Systems), XAV939 (XAV; 10 μM; Sigma-Aldrich) or CHIR99021 (CHIR; 10 μM; Sigma-Aldrich) to ChBM was performed as indicated. Cell pellets were harvested at the indicated day for analysis. Micromass culture-based chondrogenic differentiation was performed as previously reported, using 2×10^7 cells/ml of MSCs suspended in expansion medium and 20-μl drops spotted in the center of each well of a 24-well culture plate (Craft et al., 2015; Greco et al., 2011). After adhesion for 1.5 hour in a humidified incubator at 37° C. with 5% CO2, the medium was changed to ChBM with indicated regulators for chondrogenic induction.
Samples were washed with PBS and fixed with 4% paraformaldehyde, followed by pH 1.0 1% Alcian blue 8GX (Sigma-Aldrich) staining at room temperature overnight to detect sulfated proteoglycan matrix (Lev and Spicer, 1964). Quantification of Alcian blue staining extracted with 6M Guanidine-HCl was measured in 650 nm absorbance (Song et al., 2018). […]

[2] = tested on: β-catenin in iPSC-MSC pellets; assay: Immunofluorescent staining and quantification of nuclear β-catenin; type: cell-based, human; conditions: ChBM plus modulator, 1 day, compared to ChBM or TGFβ3 (FIG. 4A, 4B)
Experimental: as §1, with “Micromass culture-based chondrogenic differentiation was performed as previously reported, using 2×10^7 cells/ml of MSCs suspended in expansion medium and 20-μl drops spotted in the center of each well of a 24-well culture plate (Craft et al., 2015; Greco et al., 2011). After adhesion for 1.5 hour in a humidified incubator at 37° C. with 5% CO2, the medium was changed to ChBM with indicated regulators for chondrogenic induction.” left out
(§2) Immunofluorescent staining was performed as previously reported (Wang et al., 2013). […] Fluorescent signals were acquired by confocal microscopy (Leica TCS SP5 II, Wetzlar, Germany) and analyzed by Image J (NIH, Maryland, USA).

[3] = tested on: N-cadherin/β-catenin interactions in micromass cultured iPSC-MSCs; assay: Proximity ligation assay (PLA) for N-cadherin-β-catenin interaction; type: cell-based, human; conditions: ChBM plus modulator, 1 day (FIG. 5C, 5D)
Experimental: Micromass cultured iPSC-MSCs were used for PLA and performed according to the manufacturer's protocol (Sigma-Aldrich). Antibodies against N-cadherin (Abcam) and β-catenin (BD Biosciences) were used for recognition. After ligation and amplification, the PLA signals from each pair of probes in close proximity (<40 nm) were visualized by confocal microscope (Leica TCS SP5 II) and signal counts were analyzed by Image J.

[4] = tested on: pellet-cultured iPSC-MSCs; assay: 3D pellet culture chondrogenic differentiation of iPSC-MSCs, Alcian Blue staining and quantification; type: cell-based, human; conditions: for pellet condensation and Alcian Blue staining compared to ChBM: ChBM plus modulator (10 ng/mL TGFβ3, 10 μM CHIR or XAV), 20 days (FIG. 3A top); for quantification of GAG production: Day 10, compared to ChBM and to TGFβ3 (FIG. 3A right)
Experimental: as §1
(§3) Samples were washed with PBS and fixed with 4% paraformaldehyde, followed by pH 1.0 1% Alcian blue 8GX (Sigma-Aldrich) staining at room temperature overnight to detect sulfated proteoglycan matrix (Lev and Spicer, 1964). Quantification of Alcian blue staining extracted with 6M Guanidine-HCl was measured in 650 nm absorbance (Song et al., 2018).

[5] = tested on: β-catenin in micromass-cultured iPSC-MSCs; assay: Immunofluorescence quantification of β-catenin expression; type: cell-based, human; conditions: 1 day (FIG. 8)
Experimental: Confocal immunofluorescence microscopy and fluorescence quantification of β-catenin in micromass-cultured iPSC-MSCs with the indicated modulators in chondrogenic induction medium for 1 day. Nuclei are labeled by DAPI. Scale bar, 5 μm. ChBM, chondrogenic basal medium without TGFβ. XAV, Wnt/β-catenin antagonist XAV939. CHIR, Wnt/β-catenin agonist CHIR99021. Data are represented as mean±S.D. *, p<0.05, **, p<0.01, ***, p<0.001.
Immunofluorescent staining was performed as previously reported (Wang et al., 2013). Paraformaldehyde-fixed cell samples were permeabilized with 0.1% Triton X-100 and nonspecific binding was blocked by 5% bovine serum albumin Primary antibodies against alpha smooth muscle actin (αSMA) (Sigma-Aldrich), β-catenin (BD Biosciences, San Jose, Calif., USA) or N-cadherin (Abcam, Cambridge, UK) were stained with 1:100 dilution for 24 hours, followed by species specific secondary antibody incubation overnight. Fluorescent signals were acquired by confocal microscopy (Leica TCS SP5 II, Wetzlar, Germany) and analyzed by Image J (NIH, Maryland, USA).

[6] = tested on: micromass-cultured iPSC-MSCs; assay: Micromass culture chondrogenic differentiation, Alcian Blue staining and quantification; type: cell-based, human; conditions: ChBM plus modulator; for micromass structural condensation and Alcian Blue intensity: Day 10, compared to ChBM and TGFβ3 (FIG. 3B)
Experimental: as §1, §3

iPSC-MSC pellets = assay: Quantitative real-time PCR of chondrogenic, osteogenic and Wnt downstream genes; type: cell-based, human; conditions: for AXIN2 gene expression: 3 days (FIG. 4C); for COL2A1 gene expression / ACAN gene expression: no TGFβ unless added; for COL2A1 gene expression: Day 3 (FIG. 3C); for ACAN gene expression: Day 3 (FIG. 3D); for collagen 2A1 (COL2A1) gene expression: Day 3 (FIG. 1D); for aggrecan (ACAN) gene expression: Day 3 (FIG. 1E); for RUNX2 mRNA expression compared to ChBM: 10 ng/mL in ChBM, Day 3 (FIG. 2E)
Experimental: as §1
Total RNA was isolated using TRI® reagent (Sigma-Aldrich), and quantified using NanoDrop spectrophotometer (Nyxor Biotech, Paris, France) (Wang et al., 2013). Reverse transcription was performed using RevertAid H Minus reverse transcriptase (Thermo Fisher Scientific), and PCR was performed on ABI PRISM 7500 system (Applied Biosystem, Foster City, Calif., USA) with SYBR Fast qPCR kit (KAPA Biosystems, Boston, Mass., USA). mRNA expression level was calculated by using the ΔΔCt method, and glyceraldehyde 3-phosphate dehydrogenase (GAPDH) level were used as housekeeping control. The results are normalized to ChBM to represent effects of indicated modulators.

[7] = tested on: Mouse BM-MSCs transplanted subcutaneously into wild-type C57BL/6J mice; assay: In vivo ectopic chondrogenesis, Alcian Blue staining of transplanted MSC pellets; conditions: local injection every 3 days, harvest Day 20 (FIG. 3F)
Experimental: Samples were washed with PBS and fixed with 4% paraformaldehyde, followed by pH 1.0 1% Alcian blue 8GX (Sigma-Aldrich) staining at room temperature overnight to detect sulfated proteoglycan matrix (Lev and Spicer, 1964). Quantification of Alcian blue staining extracted with 6M Guanidine-HCl was measured in 650 nm absorbance (Song et al., 2018). All animal work was performed according to protocols approved by the Institutional Animal Care and Use Committee. In vivo ectopic chondrogenesis was performed as previously reported with modifications (Zhao et al., 2014). Mouse BM-MSCs were cultured as 3D pellets in ChBM alone or with addition of TGFβ3, CHIR, or XAV for 3 days, then subcutaneously transplanted to dorsal skin of wild-type C57BL/6J mice, with local injections of modulators every 3 days till the pellet sample was harvested at Day 20. Collected samples were then frozen in optimal cutting temperature (OCT) compound and sliced to […] in thickness for histological staining.

[8] = tested on: N-cadherin in iPSC-MSCs cultured as micromass; assay: Immunofluorescent staining of N-cadherin; type: cell-based, human; conditions: ChBM plus modulator, 24 hours, compared to all other conditions (FIG. 5A, 5B)
Experimental: as §1, with “Micromass culture-based chondrogenic differentiation was performed as previously reported, using 2×10^7 cells/ml of MSCs suspended in expansion medium and 20-μl drops spotted in the center of each well of a 24-well culture plate (Craft et al., 2015; Greco et al., 2011). After adhesion for 1.5 hour in a humidified incubator at 37° C. with 5% CO2, the medium was changed to ChBM with indicated regulators for chondrogenic induction.” left out
as §2

[9] = ChBM plus modulator, 3 days (FIG. 4D)

Row | Molecule | pellet condensation / pellet integrity [1] | nuclear β-catenin levels [2] | N-cadherin/β-catenin interactions, PLA signals [3] | pellet condensation and Alcian Blue staining compared to ChBM [4] | quantification of GAG production ([4]; ChBM plus modulator) | micromass structural condensation and Alcian Blue intensity [6] | AXIN2 gene expression (iPSC-MSC pellets; ChBM plus modulator) | RUNX2 gene expression (iPSC-MSC pellets; [9]) | COL2A1 gene expression (iPSC-MSC pellets; ChBM plus modulator) | ACAN gene expression (iPSC-MSC pellets; ChBM plus modulator) | collagen 2A1 (COL2A1) gene expression (iPSC-MSC pellets; in ChM) | aggrecan (ACAN) gene expression (iPSC-MSC pellets; in ChM) | RUNX2 gene expression (iPSC-MSC pellets; in ChM, Day 3 (FIG. 1F)) | RUNX2 mRNA expression compared to ChBM (iPSC-MSC pellets) | further results
1 | Cc1c[nH]c(-c2cnc(NCCNc3ccc(C#N)cn3)nc2-c2ccc(Cl)cc2Cl)n1 [CHIR, CHIR99021] | decreased pellet integrity | dramatically increased | minimal PLA signal detected | did not undergo condensation but became disintegrated | minimal GAG production | minimal evidence of any micromass structure or Alcian Blue staining | strongly increased | strongly increased | minimal expression | minimal expression | significant downregulation | significant downregulation | the opposite effect |  | β-catenin expression [5]: strongest expression of β-catenin; SOX9 gene expression (iPSC-MSC pellets; in ChM, Day 3 (FIG. 1C)): significant downregulation
2 | C=C1[C@@H](C)[C@H]2[C@H](Cc3ccccc3)NC(=O)[C@]23[C@H](OC(C)=O)/C=C/[C@@](C)(O)C(=O)[C@@H](C)C/C=C/[C@H]3[C@@H]1O [CytoD, cytochalasin D] |  |  |  |  |  |  |  |  |  |  |  |  |  |  | pellet condensation / structure and chondrogenic differentiation ([4]; 0.25 μM CytoD, 10 μM XAV, Day 10 (FIG. 5F, 5G)): significantly disrupted the condensation process with the pellets completely disintegrated by Day 10
3 | Oc1nc(-c2ccc(C(F)(F)F)cc2)nc2c1CSCC2 [XAV, XAV939] | increased condensation of the pellets | lowest nuclear β-catenin levels | significantly increase | formed well-condensed spheres and strong Alcian Blue staining | significant increases | better structural condensation and stronger Alcian Blue intensity | significantly decreased | significantly decreased | most significantly upregulated | most significantly upregulated | significant upregulation | significant upregulation | decreased expression |  | GAG production in in vivo differentiated samples ([7]; 10 μM): highest level of GAG production; GAG production in vivo compared to TGFβ3 agonism [7]: significantly increased; quantification of glycosaminoglycans (GAGs), Alcian Blue ([1]; 20 days, compared to ChM (FIG. 1A)): significant increase; N-cadherin expression [8]: strongly and most significantly upregulated; GAG production by Alcian Blue staining, XAV versus TGFβ3 ([4]; ChBM plus modulator, Day 10 (FIG. 3A bottom)): more rapidly induced; quantitation of GAG production in micromass culture ([6]; Day 10 (FIG. 3B)): highest production of GAG
4 | TGFβ1: pleomorphic growth factor commonly used to induce MSC chondrogenesis (R&D Systems) |  |  |  |  |  |  |  |  |  |  |  |  |  | significantly upregulated | 
5 | B1 |  |  |  | formed well-condensed spheres and strong Alcian Blue staining |  |  | increased expression | increased expression | did not increase expression | did not increase expression |  |  |  | significantly upregulated | 
